From patent US12060330B2, “Therapeutic indazoles” (priority 2017, dated 2024)
Entries after “also recorded” stand apart in the source; their conditions may differ.

test system: mycolic acid biosynthesis; assay type: cell-based, M. tuberculosis

Row | SMILES | inhibition of mycolic acid biosynthesis
1 | CCCCS(=O)(=O)Nc1ccc2cnn(C)c2c1 [DG167, N-(1-methyl-1H-indazol-6-yl)butane-1-sulfonamide] | dose-dependent inhibition; also recorded: resistant to DG167-mediated inhibition of mycolic acid biosynthesis

test system: DG167-resistant M. tuberculosis mutants; assay type: cell-based

Row | SMILES | susceptibility of DG167-resistant mutants
2 | CCc1cc(C(N)=S)ccn1 [ETH, ethionamide] | remained susceptible
3 | CC(C)=CCC/C(C)=C/CNCCNC1C2CC3CC(C2)CC1C3 (stereo not shown) [SQ109] | remained susceptible
4 | CC[C@@H](CO)NCCN[C@@H](CC)CO [EMB, ethambutol] | remained susceptible
5 | COc1nc2ccc(Br)cc2cc1[C@@H](c1ccccc1)[C@@](O)(CCN(C)C)c1cccc2ccccc12 [BDQ, bedaquiline] | remained susceptible
6 | O=[N+]([O-])c1cn2c(n1)OC[C@@H](OCc1ccc(OC(F)(F)F)cc1)C2 [PA824] | remained susceptible
7 | NNC(=O)c1ccncc1 [INH, isoniazid, reference compound] | remained susceptible
